Test system: promyelocytic leukemia strain HL-60
Experiment: Test for induction of cell differentiation in HL-60 cells (NBT reducing ability), compound alone or with coexistence of VD3
Format: cell-based
Details: compound alone
Experimental: Cell differentiation-inducing action was examined for each of the compounds obtained in the examples alone or with the coexistence of 1×10^−8 M1α,25-dihydroxyvitamin D3 (VD3). According to the method described in Japanese Patent Unexamined Publication (Kokai) No. 61–76440, cell differentiation of promyelocytic leukemia strain HL-60 into granulocytic series was determined based on morphological change and measurement of ability to reduce nitroblue tetrazolium (NBT). The values in the table indicate ratios (%) of differentiated cells calculated from the NBT reducing ability, and the row represented by “VD3” indicates the results obtained by using vitamin D3.

## C=C1/C(=C\C=C2/CCC[C@]3(C)[C@@H]([C@H](C)CCCC(C)(C)O)CC[C@@H]23)C[C@@H](O)C[C@@H]1O [VD3, 1α,25-dihydroxyvitamin D3]
Log Concentration (M) −7
  ratios (%) of differentiated cells calculated from the NBT reducing ability: 75%
Log Concentration (M) −8
  ratios (%) of differentiated cells calculated from the NBT reducing ability: 41%
Log Concentration (M) −9
  ratios (%) of differentiated cells calculated from the NBT reducing ability: 7%

Source: patent US7084133B2, “Dicarba-closo-dodecaborane derivatives” (priority 2001, dated 2006)
